From patent US20230094076A1, “COMBINATION THERAPY” (GlaxoSmithKline Intellectual Property Development Limited, priority 2016, published 2023)

Test system: AML cell lines
Test: Preliminary RNA-seq studies
Type: cell-based
Conditions: chemokines, cytokines, interferons, interleukins
From the text: PRMT1 has been implicated in immune regulation through modulation of the TLR receptor signaling pathway, whereby PRMT1 knock-down results in increased expression of pro-inflammatory molecules (Tikhanovich, I. et al. Dynamic Arginine Methylation of Tumor Necrosis Factor (TNF) Receptor-associated Factor 6 Regulates Toll-like Receptor Signaling. J Biol Chem 290, 22236-22249, doi:10.1074.jbc.M115.653543 (2015)).

Structure (SMILES): CNCCN(C)Cc1c[nH]nc1[C@H]1CC[C@@]2(CC1)CC(C)(C)CO2 [Compound D]
- expression of immune response gene families: altered expression
